Test results reported in publication PMC11300601, “Zurletrectinib is a next-generation TRK inhibitor with strong intracranial activity against NTRK fusion-positive tumours with on-target resistance to first-generation agents” (British Journal of Cancer, 2024).
Like-named read-outs stand apart in the source and are kept apart here.

What was measured:
Ba/F3 LMNA-NTRK1-G595R = test: Ba/F3 cell viability (anti-proliferative activity); format: cell-based, mouse
Excerpt: (§1) NTRK fusion-positive colorectal cancer cell lines IRC, Kor1, and KM12 were utilized. The IRC and the KM12 cell lines were obtained from Dr. Bardelli and cultured according to the described protocols. The Kor1 cell line was obtained from Lee et al. and cultured on laminin pre-treated plates in RPMI media supplemented with 10% Fetal Bovine Serum (FBS). All cell lines were authenticated by STR and periodically screened for the presence of mycoplasma. For the mutant models, two human-derived colorectal cancer cell lines (IRC) and two mouse-derived glioma models (NLS) were used. […] Sequencing of the double mutant cell line was performed using MSK-IMPACT [25]. IRC primary cell lines were cultured with DMEM/F12 50:50 Mix (Corning) supplemented with 10% FBS. NLS Bcan-Ntrk1 Trka G598R and Bcan-Ntrk1 Trka G670C single mutants as well as double mutants NLS Bcan-Ntrk1 Trka G598R/G670A and NLS Bcan-Ntrk1 Trka G598R/G670C isogenic models were established using CRISPR/Cas9 to knock-in TRKA solvent-front and xDFG mutations into tumor cells derived from a Bcan-Ntrk1-driven glioma mouse model. Trka G598R is the mouse ortholog to human TRKA G595R while Trka G670A and Trka G670C are the mouse ortholog to human TRKA G667A and TRKA G667C, respectively. Mouse p53 ^−/^− Bcan-Ntrk1 glioma cells were plated on laminin-coated plates and cultured with Neurocult Stem Cell Basal Media with Proliferation Supplements (Stem Cell Technologies). Ba/F3 cell lines stably expressing WT and mutant versions (i.e. G595R, G667C/A, V573M, F589L, F633L, F617L, G623R/E, G639R, G696A/C, G709C, V608D/M) of human TRKA, TRKB or TRKC were generated using either lentiviral transduction or standard transfection methods by a contract research organization (Kyinno, Beijing, China).
(§2) CellTiter-Glo Cell Viability Assays (Promega) and crystal violet clonogenic assays were performed on primary NTRK fusion-positive colorectal cancer cell lines, mouse Ba/F3 cell lines and isogenic mouse glioma cell lines. For the CellTiter-Glo assays, three biological replicates were performed, with each condition being assayed in triplicate determinations. Cells were seeded in a 96-well plate in the afternoon at optimal density. […] Plates were removed from the incubator 72 h later and CellTiter-Glo reagent was added. Absorbance was read at 490 nm in accordance with Promega’s protocol. Data is presented as a survival percentage on the y-axis (mean ± STDEV) normalized to the control DMSO-treated cells deemed 100% viable. Drug concentrations on the x-axis are represented as a base 10 logarithm (LOG). For the crystal violet assays, cells were seeded in a 24-well plate at optimal densities in the afternoon. […] Crystal violet plates were removed from the incubator 72 h later, washed with PBS, fixed with 4% paraformaldehyde for 15 min, and stained with crystal violet for 10 min. Crystal violet was washed off and plates were left to dry prior to imaging. Clonogenic assays were performed in three biological replicates.
(§3) Statistical analyses were conducted using GraphPad Prism 9 (GraphPad Software Inc.). For CellTiter-Glo assays, raw data obtained were normalized to the DMSO control utilizing Microsoft Excel. […] Data is presented as the mean ± standard deviation (STDEV) of all replicates. Measurements were assessed for normal distribution and homogeneity of variance using appropriate tests and were analyzed using analysis of variance or T-Tests, and nonparametric tests were used for non-normal distributed data. Animal studies utilized five arms with six or eight mice per arm. A Kaplan–Meier test was used to assess lifespan characteristics and for comparison between groups. Median survivals were obtained using GraphPad Prism 9. Sample size was based on statistical power analysis to ensure sufficient capability to detect a pre-specified effect size. We assumed a moderate effect size, with an alpha level set at 0.05, and a power (1-β) set at 0.80.

Ba/F3 LMNA-NTRK1-F589L = test: Ba/F3 cell viability (anti-proliferative activity); format: cell-based, mouse
Excerpt: as §1, §2, §3

Ba/F3 LMNA-NTRK1-A608D = test: Ba/F3 cell viability (anti-proliferative activity); format: cell-based, mouse
Excerpt: as §1, §2, §3

Ba/F3 LMNA-NTRK1 = test: Ba/F3 cell viability (anti-proliferative activity); format: cell-based, mouse
Excerpt: as §1, §2, §3

Ba/F3 LMNA-NTRK1-G667C = test: Ba/F3 cell viability (anti-proliferative activity); format: cell-based, mouse
Excerpt: as §1, §2, §3

Ba/F3 LMNA-NTRK1-G667A = test: Ba/F3 cell viability (anti-proliferative activity); format: cell-based, mouse
Excerpt: as §1, §2, §3

Ba/F3-LMNA-NTRK1-V573M = test: Ba/F3 cell viability (anti-proliferative activity); format: cell-based, mouse
Excerpt: as §1, §2, §3

KM12 xenografts = test: KM12 subcutaneous xenograft efficacy study; format: in vivo, BALB/c nude female mice; settings: 30 mg/kg BID versus 1 mg/kg BID zurletrectinib, oral
Method: KM12 and Ba/F3 LMNA-NTRK1, TRKA G595R xenografts were generated by subcutaneous injection of five and six million cells into the right flank of 6–8 weeks old BALB/c nude female mice, respectively. Treatment with zurletrectinib, selitrectinib and larotrectinib started at tumor reaching around 150 mm^3. Xenografts were randomized into different groups (8 mice per group) based on tumor size and dosed orally with zurletrectinib (0.1, 0.3, 1 mg/kg BID for KM12 models and 0.3, 1, 3 mg/kg BID for Ba/F3 models), selitrectinib (30 mg kg^−1 BID per day) and larotrectinib (30 mg kg^−1 BID) for constant 10 days or 23 days for KM12 or Ba/F3 models, respectively. Eight mice per group were included in each experiment. Randomization was conducted without utilizing a blind method. Tumors were measured twice weekly using calipers and body weight was also assessed twice weekly. At the end of each treatment, animals were euthanized. The vehicles were formulated as follows: were first dissolved in Cremophor EL/ethanol (50:50) as a 4× stock solution, vortexed, sonicated and then diluted to a 1× solution with saline before use.

[1] = test system: Bcan-Ntrk1 Trka G598R/G670A; test: Proliferation and clonogenic assays, mouse glioma cell line; format: cell-based
Excerpt: as §1
(§4) CellTiter-Glo Cell Viability Assays (Promega) and crystal violet clonogenic assays were performed on primary NTRK fusion-positive colorectal cancer cell lines, mouse Ba/F3 cell lines and isogenic mouse glioma cell lines. For the CellTiter-Glo assays, three biological replicates were performed, with each condition being assayed in triplicate determinations. Cells were seeded in a 96-well plate in the afternoon at optimal density. […] Plates were removed from the incubator 72 h later and CellTiter-Glo reagent was added. Absorbance was read at 490 nm in accordance with Promega’s protocol. Data is presented as a survival percentage on the y-axis (mean ± STDEV) normalized to the control DMSO-treated cells deemed 100% viable. Drug concentrations on the x-axis are represented as a base 10 logarithm (LOG). For the crystal violet assays, cells were seeded in a 24-well plate at optimal densities in the afternoon. […]

Bcan-Ntrk1 Trka G598R = test: as above; format: cell-based
Excerpt: as §1, §4

`O=C(Nc1cnn2ccc(N3CCC[C@@H]3c3cc(F)ccc3F)nc12)N1CC[C@H](O)C1` [Larotrectinib, larotrectinib] gave an IC50 (Ba/F3 LMNA-NTRK1-G595R; Mus musculus, BaF3) of 3200 nM, an IC50 (Ba/F3 LMNA-NTRK1-F589L; Mus musculus, BaF3) of 614 nM and an IC50 (Ba/F3 LMNA-NTRK1-A608D; Mus musculus, BaF3) of 19.7 nM. It also gave an IC50 (Ba/F3 LMNA-NTRK1; Mus musculus, BaF3) of 21.8 nM, an IC50 (Ba/F3 LMNA-NTRK1-G667C; Mus musculus, BaF3) of 1370 nM and an IC50 (Ba/F3 LMNA-NTRK1-G667A; Mus musculus, BaF3) of 118 nM. For the same molecule, the IC50 (Ba/F3-LMNA-NTRK1-V573M; Mus musculus, BaF3) was 45.4 nM and the “Fold higher dose necessary to achieve the same effect on tumor growth inhibition observed with zurletrectinib” value (KM12 xenografts) was 30 fold.

`C[C@@H]1CCc2ncc(F)cc2[C@H]2CCCN2c2ccn3ncc(c3n2)C(=O)N1` [Selitrectinib, selitrectinib] gave an IC50 (Ba/F3 LMNA-NTRK1-G595R; Mus musculus, BaF3) of 18.1 nM, an IC50 (Ba/F3 LMNA-NTRK1-F589L; Mus musculus, BaF3) of 46.9 nM and an IC50 (Ba/F3 LMNA-NTRK1-A608D; Mus musculus, BaF3) of 3.16 nM. For the same molecule, the IC50 (Ba/F3 LMNA-NTRK1; Mus musculus, BaF3) was 3.38 nM, the IC50 (Ba/F3 LMNA-NTRK1-G667C; Mus musculus, BaF3) was 164 nM and the IC50 (Ba/F3 LMNA-NTRK1-G667A; Mus musculus, BaF3) was 21.1 nM. The IC50 (Ba/F3-LMNA-NTRK1-V573M; Mus musculus, BaF3) was 5.47 nM, the “Fold higher dose necessary to achieve the same effect on tumor growth inhibition observed with zurletrectinib” value (KM12 xenografts) was 30 fold and the “Activity against mouse glioma cell line” value [1] was “highly active”. The “Activity against mouse glioma cell line” value (Bcan-Ntrk1 Trka G598R) was “highly active”.

Work on zurletrectinib yielded an IC50 (Ba/F3 LMNA-NTRK1-G595R) of 11 nM, an IC50 (Ba/F3 LMNA-NTRK1-F589L) of 40.8 nM and an IC50 (Ba/F3 LMNA-NTRK1-A608D) of 1.18 nM. The IC50 (Ba/F3 LMNA-NTRK1) was 1.2 nM, the IC50 (Ba/F3 LMNA-NTRK1-G667C) was 38.8 nM and the IC50 (Ba/F3 LMNA-NTRK1-G667A) was 5.27 nM. For the same molecule, the IC50 (Ba/F3-LMNA-NTRK1-V573M) was 2.33 nM, the “Activity against mouse glioma cell line” value [1] was “highly active” and the “Activity against mouse glioma cell line” value (Bcan-Ntrk1 Trka G598R) was “highly active”.
